Assays:
Type in all cases: in vivo
[1] = tested on: wheat (Triticum aestivum); experiment: Test A postemergence, visual plant response rating; settings: for Wheat plant response rating (0 to 100 scale): 500 g ai/ha, postemergence, 0 is no effect, 100 is complete control; for Wheat plant response rating: Postemergence, 125 g ai/ha, 0 to 100 scale (0 no effect, 100 complete control)
Description: (§1) Seeds of plant species selected from barnyardgrass (Echinochloa crus-galli), kochia (Kochia scoparia), ragweed (common ragweed, Ambrosia elatior), Italian ryegrass (Lolium multiflorum), foxtail, giant (giant foxtail, Setaria faberii), foxtail, green (green foxtail, Setaria viridis), and pigweed (Amaranthus retroflexus) were planted into a blend of loam soil and sand and treated preemergence with a directed soil spray using test chemicals formulated in a non-phytotoxic solvent mixture which included a surfactant.
(§2) At the same time, plants selected from these weed species and also wheat (Triticum aestivum), corn (Zea mays), blackgrass (Alopecurus myosuroides), and galium (catchweed bedstraw, Galium aparine) were planted in pots containing the same blend of loam soil and sand and treated with postemergence applications of test chemicals formulated in the same manner. Plants ranged in height from 2 to 10 cm and were in the one- to two-leaf stage for the postemergence treatment. Treated plants and untreated controls were maintained in a greenhouse for approximately 10 days, after which time all treated plants were compared to untreated controls and visually evaluated for injury. Plant response ratings, summarized in Table A, are based on a 0 to 100 scale where 0 is no effect and 100 is complete control. A dash (-) response means no test result.

[2] = tested on: foxtail, giant (giant foxtail, Setaria faberii); experiment: Test A postemergence, visual plant response rating; settings: for Foxtail, Giant plant response rating (0 to 100 scale): 500 g ai/ha, postemergence, 0 is no effect, 100 is complete control; for Foxtail, Giant plant response rating: Postemergence, 125 g ai/ha, 0 to 100 scale (0 no effect, 100 complete control)
Description: as §1, §2

[3] = tested on: galium (catchweed bedstraw, Galium aparine); experiment: Test A postemergence, visual plant response rating; settings: for Galium plant response rating (0 to 100 scale): 500 g ai/ha, postemergence, 0 is no effect, 100 is complete control; for Galium plant response rating: Postemergence, 125 g ai/ha, 0 to 100 scale (0 no effect, 100 complete control)
Description: as §1, §2

[4] = tested on: corn (Zea mays); experiment: Test A postemergence, visual plant response rating; settings: for Corn plant response rating (0 to 100 scale): 500 g ai/ha, postemergence, 0 is no effect, 100 is complete control; for Corn plant response rating: Postemergence, 125 g ai/ha, 0 to 100 scale (0 no effect, 100 complete control)
Description: as §1, §2

[5] = tested on: blackgrass (Alopecurus myosuroides); experiment: Test A postemergence, visual plant response rating; settings: for Blackgrass plant response rating (0 to 100 scale): 500 g ai/ha, postemergence, 0 is no effect, 100 is complete control; for Blackgrass plant response rating: Postemergence, 125 g ai/ha, 0 to 100 scale (0 no effect, 100 complete control)
Description: as §1, §2

[6] = tested on: Italian ryegrass (Lolium multiflorum); experiment: Test A postemergence, visual plant response rating; settings: for Ryegrass, Italian plant response rating (0 to 100 scale): 500 g ai/ha, postemergence, 0 is no effect, 100 is complete control; for Ryegrass, Italian plant response rating: Postemergence, 125 g ai/ha, 0 to 100 scale (0 no effect, 100 complete control)
Description: as §1, §2

[7] = tested on: ragweed (common ragweed, Ambrosia elatior); experiment: Test A postemergence, visual plant response rating; settings: for Ragweed plant response rating (0 to 100 scale): 500 g ai/ha, postemergence, 0 is no effect, 100 is complete control; for Ragweed plant response rating: Postemergence, 125 g ai/ha, 0 to 100 scale (0 no effect, 100 complete control)
Description: as §1, §2

[8] = tested on: pigweed (Amaranthus retroflexus); experiment: Test A postemergence, visual plant response rating; settings: for Pigweed plant response rating (0 to 100 scale): 500 g ai/ha, postemergence, 0 is no effect, 100 is complete control; for Pigweed plant response rating: Postemergence, 125 g ai/ha, 0 to 100 scale (0 no effect, 100 complete control)
Description: as §1, §2

[9] = tested on: kochia (Kochia scoparia); experiment: Test A postemergence, visual plant response rating; settings: for Kochia plant response rating (0 to 100 scale): 500 g ai/ha, postemergence, 0 is no effect, 100 is complete control; for Kochia plant response rating: Postemergence, 125 g ai/ha, 0 to 100 scale (0 no effect, 100 complete control)
Description: as §1, §2

[10] = tested on: barnyardgrass (Echinochloa crus-galli); experiment: Test A postemergence, visual plant response rating; settings: for Barnyardgrass plant response rating (0 to 100 scale): 500 g ai/ha, postemergence, 0 is no effect, 100 is complete control; for Barnyardgrass plant response rating: Postemergence, 125 g ai/ha, 0 to 100 scale (0 no effect, 100 complete control)
Description: as §1, §2

[11] = tested on: foxtail, giant (giant foxtail, Setaria faberii); experiment: Test A preemergence, visual plant response rating; settings: for Foxtail, Giant plant response rating: 125 g ai/ha, preemergence, 0 to 100 scale, 0 no effect, 100 complete control; for Foxtail, Giant plant response rating (0 to 100 scale): 500 g ai/ha Preemergence, approx. 10 days
Procedure, shortened: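 Ratings 0–100 (100 = complete control), visual, vs untreated controls at ~10 days. Application pre- or postemergence; solvent mixture with surfactant; loam/sand medium.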

[12] = tested on: Italian ryegrass (Lolium multiflorum); experiment: Test A preemergence, visual plant response rating; settings: for Ryegrass, Italian plant response rating: 125 g ai/ha, preemergence, 0 to 100 scale, 0 no effect, 100 complete control; for Ryegrass, Italian plant response rating (0 to 100 scale): 500 g ai/ha Preemergence, approx. 10 days
Procedure, shortened: (§3)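 Preemergence: seeds in loam/sand blend given directed soil spray of compound in non-phytotoxic solvent with surfactant. Postemergence: plants 2–10 cm, one- to two-leaf stage, sprayed with same formulation. Visual injury rated vs untreated controls after ~10 days in greenhouse, 0 (no effect) to 100 (complete control).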

[13] = tested on: ragweed (common ragweed, Ambrosia elatior); experiment: Test A preemergence, visual plant response rating; settings: for Ragweed plant response rating: 125 g ai/ha, preemergence, 0 to 100 scale, 0 no effect, 100 complete control; for Ragweed plant response rating (0 to 100 scale): 500 g ai/ha Preemergence, approx. 10 days
Procedure, shortened: as §3

[14] = tested on: pigweed (Amaranthus retroflexus); experiment: Test A preemergence, visual plant response rating; settings: for Pigweed plant response rating: 125 g ai/ha, preemergence, 0 to 100 scale, 0 no effect, 100 complete control; for Pigweed plant response rating (0 to 100 scale): 500 g ai/ha Preemergence, approx. 10 days
Procedure, shortened: as §3

[15] = tested on: kochia (Kochia scoparia); experiment: Test A preemergence, visual plant response rating; settings: for Kochia plant response rating: 125 g ai/ha, preemergence, 0 to 100 scale, 0 no effect, 100 complete control; for Kochia plant response rating (0 to 100 scale): 500 g ai/ha Preemergence, approx. 10 days
Procedure, shortened: as §3

[16] = tested on: barnyardgrass (Echinochloa crus-galli); experiment: Test A preemergence, visual plant response rating; settings: for Barnyardgrass plant response rating: 125 g ai/ha, preemergence, 0 to 100 scale, 0 no effect, 100 complete control; for Barnyardgrass plant response rating (0 to 100 scale): 500 g ai/ha Preemergence, approx. 10 days
Procedure, shortened: as §3

[17] = tested on: ducksalad (Heteranhera limosa); experiment: Test B flooded paddy test, visual plant response rating; settings: 250 g ai/ha, Flood, applied to paddy water, 2-leaf stage, evaluated after 13 to 15 days
Method: (§4) Plant species in the flooded paddy test selected from rice (Oryza sativa), sedge, umbrella (small-flower umbrella sedge, Cyperus difformis), ducksalad (Heteranhera limosa), and barnyardgrass (Echinochloa crus-galli) were grown to the 2-leaf stage for testing. At time of treatment, test pots were flooded to 3 cm above the soil surface treated by application of test compounds directly to the paddy water, and then maintained at that water depth for the duration of the test. Treated plants and controls were maintained in a greenhouse for 13 to 15 days, after which time all species were compared to controls and visually evaluated. […] A dash (-) response means no test result.

[18] = tested on: sedge, umbrella (small-flower umbrella sedge, Cyperus difformis); experiment: as above; settings: 250 g ai/ha, Flood, applied to paddy water, 2-leaf stage, evaluated after 13 to 15 days
Method: as §4

[19] = tested on: rice (Oryza sativa); experiment: as above; settings: 250 g ai/ha, Flood, applied to paddy water, 2-leaf stage, evaluated after 13 to 15 days
Method: as §4

[20] = tested on: barnyardgrass (Echinochloa crus-galli); experiment: as above; settings: 250 g ai/ha, Flood, applied to paddy water, 2-leaf stage, evaluated after 13 to 15 days
Method: as §4

SMILES | Wheat plant response rating (0 to 100 scale) [1] | Wheat plant response rating [1] | Foxtail, Giant plant response rating (0 to 100 scale) [2] | Foxtail, Giant plant response rating [2] | Galium plant response rating (0 to 100 scale) [3] | Galium plant response rating [3] | Corn plant response rating (0 to 100 scale) [4] | Corn plant response rating [4] | Blackgrass plant response rating (0 to 100 scale) [5] | Blackgrass plant response rating [5] | Ryegrass, Italian plant response rating (0 to 100 scale) [6] | Ryegrass, Italian plant response rating [6] | Ragweed plant response rating (0 to 100 scale) [7] | Ragweed plant response rating [7] | Pigweed plant response rating (0 to 100 scale) [8] | Pigweed plant response rating [8] | Kochia plant response rating (0 to 100 scale) [9] | Kochia plant response rating [9] | Barnyardgrass plant response rating (0 to 100 scale) [10] | Barnyardgrass plant response rating [10] | further results
C#CCON=C(c1c(O)c(C)nn(C)c1=O)c1cccc2ccccc12 (mixture of isomers) [Compound 118] | 90 | 40 | 90 | 80 | 100 | 90 | 70 | 30 | 100 | 90 | 100 | 90 | 90 | 90 | 100 | 100 | 100 | 70 | 90 | 90 | Foxtail, Giant plant response rating [11]: 80; Foxtail, Giant plant response rating (0 to 100 scale) [11]: 100; Ryegrass, Italian plant response rating [12]: 100; Ryegrass, Italian plant response rating (0 to 100 scale) [12]: 100; Ragweed plant response rating [13]: 80; Ragweed plant response rating (0 to 100 scale) [13]: 100; Pigweed plant response rating [14]: 100; Pigweed plant response rating (0 to 100 scale) [14]: 100; Kochia plant response rating [15]: 40; Kochia plant response rating (0 to 100 scale) [15]: 60; Barnyardgrass plant response rating [16]: 60; Barnyardgrass plant response rating (0 to 100 scale) [16]: 100; Plant response rating, Ducksalad (0 to 100 scale, 0 is no effect, 100 is complete control) [17]: 55; Plant response rating, Sedge, Umbrella (0 to 100 scale, 0 is no effect, 100 is complete control) [18]: 35; Plant response rating, Rice (0 to 100 scale, 0 is no effect, 100 is complete control) [19]: 0; Plant response rating, Barnyardgrass (0 to 100 scale, 0 is no effect, 100 is complete control) [20]: 0
CON=C(c1cc(C)cs1)c1c(O)c(C)nn(C)c1=O (mixture of isomers) [Compound 133] | 0 | 0 | 10 | 0 | 60 | 20 | 0 | 0 | 0 | 0 | 0 | 0 | 30 | 10 | 80 | 50 | 60 | 20 | 0 | 0 | Foxtail, Giant plant response rating [11]: 0; Foxtail, Giant plant response rating (0 to 100 scale) [11]: 0; Ryegrass, Italian plant response rating [12]: 0; Ryegrass, Italian plant response rating (0 to 100 scale) [12]: 0; Ragweed plant response rating [13]: 0; Ragweed plant response rating (0 to 100 scale) [13]: 40; Pigweed plant response rating [14]: 0; Pigweed plant response rating (0 to 100 scale) [14]: 0; Kochia plant response rating [15]: 0; Kochia plant response rating (0 to 100 scale) [15]: 20; Barnyardgrass plant response rating [16]: 0; Barnyardgrass plant response rating (0 to 100 scale) [16]: 0; Plant response rating, Ducksalad (0 to 100 scale, 0 is no effect, 100 is complete control) [17]: 0; Plant response rating, Sedge, Umbrella (0 to 100 scale, 0 is no effect, 100 is complete control) [18]: 0; Plant response rating, Rice (0 to 100 scale, 0 is no effect, 100 is complete control) [19]: 0; Plant response rating, Barnyardgrass (0 to 100 scale, 0 is no effect, 100 is complete control) [20]: 0

Reference: patent publication US20210045385A1, “PYRIDAZINONE-SUBSTITUTED KETOXIMES AS HERBICIDES” (FMC Corporation, priority 2018, published 2021)
